Results published in patent publication US20220233743A1, “WOUND CLOSURE ENHANCEMENT METHODS AND MATERIALS VIA MANIPULATION OR AUGMENTATION OF LIPIN-1” (Board of Supervisors of Louisiana State University and …, priority 2019, published 2022).

Columns and labels:
Format in all cases: cell-based, mouse
[1] = test system: BMDMs; experiment: Mitochondrial bioenergetics, Seahorse OCR after IL-4
Method: BMDMs collected from lipin-1^mEnzyKO, lipin-1^mKO, and littermate control mice were seeded at a density of 150,000 cells per well on XF24 cell culture microplates and allowed to incubate for 4 h. Experiments were conducted in XF assay medium containing 25 mM glucose, 2 mM 1-glutamine, and 1 mM sodium pyruvate and analyzed using a Seahorse XFe 24 extracellular flux analyzer (Agilent Technologies). Where indicated, the following were injected: ATP-synthesis inhibitor oligomycin (Oligo; 1 μM), carbonyl cyanide 4-(trifluoromethoxy)phenylhydrazone (FCCP) (2 μM) to uncouple ATP synthesis, rotenone (100 nM) to block complex I, and antimycin A (1 μM) (Sigma-Aldrich) to block complex III. Oxygen consumption rate (OCR) was analyzed using Wave Desktop software (Agilent Technologies).
IL-4 stimulation polarizes macrophages toward a proresolving macrophage and elicits increased (3-oxidation and oxidative phosphorylation. In hepatocytes and skeletal muscle cells, lipin-1 promotes β-oxidation and oxidative phosphorylation. The inventors wanted to investigate if lipin-1 promoted oxidative phosphorylation in macrophages in response to IL-4. The inventors used BMDMs from lipin-1^mEnzyKO (EKO), lipin-1^mKO (KO), and littermate controls (wild type [WT]) to determine the contribution of the enzymatic activity and infer the contribution of the transcriptional coregulatory activity toward induction of oxidative phosphorylation. BMDMs from EKO, KO, and WT mice were stimulated with 40 ng/ml IL-4 for 4 h, and cellular bioenergetics were analyzed by Seahorse extracellular flux analyzer (Agilent Technologies). There were no differences in respiration between unstimulated WT and EKO macrophages (FIGS. 1 and 3). […] The inventors next tested if lipin-1 transcriptional coregulatory activity contributes to oxidative metabolism in macrophages. WT and lipin-1 KO macrophages were stimulated with IL-4 for 4 h, and cellular bioenergetics were analyzed. There was no difference in respiration between unstimulated WT and lipin-1 KO BMDMs (FIGS. 4 and 6).

[2] = test system: BMDMs; experiment: IL-4 mediated wound-healing gene expression, qRT-PCR; settings: 20 ng/ml IL-4 for 4 h
Method: Bone marrow-derived macrophages were treated with IL-4 (R&D Biosystems, 404-ML-050) for 4 h and mRNA was extracted from the cultured cells using RNeasy Mini Kit (Qiagen—74106) as per manufacturer's instructions. cDNA template was generated using qScript cDNA SuperMix (Quantabio, 95048). qRT-PCR was performed in a Biorad iCycler with SsoAdvanced Universal SYBER Green SuperMix (Biorad, 172-5271). Primers (FIG. 42) were obtained from the Harvard primer bank database. Primer specificity was confirmed using primer BLAST and by verifying the presence of a single peak in melt curve analysis. Results were expressed as fold change relative to IL-4 treated WT cells by 2^−ΔΔCt method after normalizing with GAPDH.
Pro-inflammatory response in macrophages is influenced by lipin-1, but if lipin-1 contributes to wound healing responses by macrophages is unknown. The inventors have previously generated lipin-1^mEnzyKO mice that express a truncated lipin-1 protein lacking lipin-1 enzymatic activity but retain transcriptional co-regulatory function in myeloid cells. […] BMDMs from lipin-1^mEnzyKO, lipin-1^mKO, and appropriate littermate controls were stimulated with 20 ng/ml of IL-4 for 4 h. mRNA was isolated and analyzed for the expression of several canonical wound-healing associated genes: Arg1, Socs2, Ccl17, Mannr, Il10, and Pparg. […]

[3] = test system: BMDMs; experiment: Phagocytosis assay with pHrodo green zymosan particles; settings: IL-4 stimulated (20 ng/ml, 24 h) lipin-1mKO BMDMs vs wild type BMDMs
Method: Bone marrow-derived macrophages (5×10^5 cells) were cultured on sterile coverslips in culture wells and treated with 20 ng/ml IL-4 for 24 h. Culture medium was then replaced with DMEM, containing pHrodo™ green Zymosan A BioParticles® (Thermo Fisher Scientific, P35365) such that each well receives 0.1 mg zymosan particles. BMDMs were allowed to phagocytose for 1 h under dark incubation and then the assay was stopped by cold PBS wash. Cells seeded on coverslips were then fixed using 4% formaldehyde. Cells on cover slips were washed three times and then stained with DAPI slowfade (Invitrogen, S36938). Immunofluorescent images were taken using Olympus BX51 and evaluated using Image J (1.50a) analysis software. Phagocytic efficiency for each image was calculated by dividing the total number of fluorescent beads by the total number of nuclei in the fluorescent image, thus giving average number of beads per cell. Experiment was performed 3 times with 4 random images per group (n=12).
Macrophages with a wound healing phenotype can have increased phagocytic capabilities. The inventors investigated the ability of BMDMs to phagocytize zymosan beads. The inventors mock treated or IL-4 treated BMDMs from lipin-1^mKO or litter mate controls for 24 h. […] The inventors then imaged using fluorescent microscopy and quantified average number of particles per cell.

IL-4: cytokine IL-4 (R&D Biosystems, 404-ML-050) used to stimulate macrophages; optional component of the claimed composition
OCR in response to IL-4 stimulation ([1]; EKO (lipin-1mEnzyKO) BMDMs, 40 ng/ml IL-4 for 4 h): equivalent increase in OCR | OCR in response to IL-4 stimulation ([1]; WT BMDMs, 40 ng/ml IL-4 for 4 h): increased OCR | OCR in response to IL-4 stimulation ([1]; lipin-1 KO BMDMs, IL-4 for 4 h): failed to increase OCR | expression of IL-4 elicited genes ([2]; lipin-1mEnzyKO BMDMs vs WT BMDMs): equivalent expression | IL-4 elicited gene expression (Arg1, Socs2, Ccl17, Mannr, Il10, Pparg) ([2]; lipin-1mKO BMDMs vs wild type or lipin-1mEnzyKO): significantly lower | zymosan particles per cell [3]: fewer particles per cell
